# Data as given in patent publication US20080096894A1, “Anti-Bacterial Compounds” (ASTON UNIVERSITY, priority 2005, published 2008).
# Read-outs that look alike come from different tables or passages of the source.
# How the values were obtained:
# Experiment in all cases: MIC, agar dilution, multipoint inoculator
# S. epidemisis = format: cell-based, Staphylococcus epidermidis; details: upper value of MIC reading
# Method: (§1) This activity was measured using a multipoint inoculator method as follows. The MIC for each compound was measured using an agar dilution method (Onda, H., et al., Int. J. Antimicrob. Agents. 18, 263 (2001)) (Mueller Hinton agar) by means of a multipoint inoculator delivering 10^4 colony forming units per spot.
# MRSA = format: cell-based, methicillin-resistant Staphylococcus aureus
# Method: as §1
# ‘Staph’ refers to the reference strain of S. aureus (NCTC 6571). A tick in the MRSA column refers to a positive zone against MRSA strain 96-7474, and the MIC range (in μg/ml) which follows is that found against a panel of ten MRSA strains. Where MIC values are given for MRSA, these are stated as a range of values, as testing was carried out on a panel of clinical isolates.
# S. aureus = format: cell-based, Staphylococcus aureus; details: upper value of MIC reading
# Method: as §1
# E. faecalis = format: cell-based; details: upper value of MIC reading
# Method: as §1
# S. maltophilia = format: cell-based; details: S. maltophilia NCTC 10257; upper value of MIC reading
# Method: as §1
# S. haemolyticus = format: cell-based; details: S. haemolyticus Isolate 1, upper value of MIC reading
# Method: as §1
# P. auriginosa = format: cell-based, Pseudomonas aeruginosa; details: P. auriginosa NCTC 6749; upper value of MIC reading
# Method: as §1
# K. pneumoniae = format: cell-based, Klebsiella pneumoniae; details: K. pneumoniae 327; upper value of MIC reading
# Method: as §1
# S. aboni = format: cell-based; details: S. aboni NCTC 6017; upper value of MIC reading
# Method: as §1
# B. bronchiseptica = format: cell-based; details: B. bronchiseptica NCTC 8344; upper value of MIC reading
# Method: as §1
# E. cloacae = format: cell-based, Enterobacter cloacae; details: E. cloacae NCTC 11582; upper value of MIC reading
# Method: as §1
# E. faecium = format: cell-based, Enterococcus faecium; details: E. faecium NCTC 7171, upper value of MIC reading
# Method: as §1
# [1] = MRSA Isolate 1, upper value of MIC reading, in µg/mL
# [2] = MRSA Isolate 3, upper value of MIC reading, in µg/mL
# [3] = MRSA Isolate 4, upper value of MIC reading, in µg/mL
# [4] = MRSA Isolate 5, upper value of MIC reading, in µg/mL
compound,measurement,setting,value
NC(=NN=Cc1c(O)ccc2ccccc12)c1ccncc1 [Compound 4PYdb],MIC,S. epidemisis; S. epidemisis Isolate 1,128 µg/mL
same,MIC,S. epidemisis; S. epidemisis NCTC 11047,128 µg/mL
same,MIC,MRSA; [1],128
same,MIC,MRSA; [2],256
same,MIC,MRSA; [3],256
same,MIC,S. aureus; S. aureus Cowan 1,128 µg/mL
same,MIC,S. aureus; S. aureus NCTC 6571,> 256 µg/mL
same,MIC,E. faecalis; E. faecalis Isolate 2,256 µg/mL
same,MIC,E. faecalis; E. faecalis Isolate 3,256 µg/mL
same,MIC,S. maltophilia,128 µg/mL
same,MIC,S. haemolyticus,128 µg/mL
O=Cc1cc([N+](=O)[O-])ccc1O [cj],MIC,S. epidemisis; S. epidemisis Isolate 1,2 µg/mL
same,MIC,S. epidemisis; S. epidemisis NCTC 11047,2 µg/mL
same,MIC,P. auriginosa,256 µg/mL
same,MIC,MRSA; [1],2
same,MIC,"MRSA; MRSA Isolate 2, upper value of MIC reading, in µg/mL",4
same,MIC,MRSA; [2],2
same,MIC,MRSA; [3],2
same,MIC,MRSA; [4],2
same,MIC,"MRSA; MRSA Isolate 6, upper value of MIC reading, in µg/mL",4
same,MIC,"MRSA; MRSA Isolate 7, upper value of MIC reading, in µg/mL",4
same,MIC,"MRSA; MRSA Isolate 8, upper value of MIC reading, in µg/mL",4
same,MIC,"MRSA; MRSA Isolate 9, upper value of MIC reading, in µg/mL",4
same,MIC,"MRSA; MRSA Isolate 10, upper value of MIC reading, in µg/mL",4
same,MIC,S. aureus; S. aureus Cowan 1,16 µg/mL
same,MIC,S. aureus; S. aureus NCTC 6571,4 µg/mL
same,MIC,S. aureus; S. aureus NCTC 10788,2 µg/mL
same,MIC,K. pneumoniae,256 µg/mL
same,MIC,S. aboni,1 µg/mL
same,MIC,E. faecalis; E. faecalis Isolate 1,256 µg/mL
same,MIC,E. faecalis; E. faecalis Isolate 5,256 µg/mL
same,MIC,S. maltophilia,256 µg/mL
same,MIC,B. bronchiseptica,256 µg/mL
same,MIC,E. cloacae,256 µg/mL
N/C(=N\N=C\c1c2ccccc2cc2ccccc12)c1ccncc1 [Compound 4PYam],MIC,"S. epidemisis; Staphylococcus epidermidis, 18 h, S. epidemisis Isolate 1, read-out: MIC",128 µg/mL
same,MIC,"S. epidemisis; Staphylococcus epidermidis, NCTC11047, 18 h, S. epidemisis NCTC 11047, read-out: MIC",256 µg/mL
same,MIC,"E. faecium; Enterococcus faecium, NCTC7171, 18 h, read-out: MIC",256 µg/mL
same,MIC,"MRSA; Staphylococcus aureus, 18 h, MRSA Isolate 1, upper value of MIC reading, read-out: MIC",32 µg/mL
same,MIC,"MRSA; Staphylococcus aureus, 18 h, MRSA Isolate 2, upper value of MIC reading, read-out: MIC",64 µg/mL
same,MIC,"MRSA; Staphylococcus aureus, 18 h, MRSA Isolate 3, upper value of MIC reading, read-out: MIC",64 µg/mL
same,MIC,"MRSA; Staphylococcus aureus, 18 h, MRSA Isolate 4, upper value of MIC reading, read-out: MIC",32 µg/mL
same,MIC,"MRSA; Staphylococcus aureus, 18 h, MRSA Isolate 5, upper value of MIC reading, read-out: MIC",32 µg/mL
same,MIC,"MRSA; Staphylococcus aureus, 18 h, MRSA Isolate 6, upper value of MIC reading, read-out: MIC",32 µg/mL
same,MIC,"MRSA; Staphylococcus aureus, 18 h, MRSA Isolate 7, upper value of MIC reading, read-out: MIC",64 µg/mL
same,MIC,"MRSA; Staphylococcus aureus, 18 h, MRSA Isolate 8, upper value of MIC reading, read-out: MIC",64 µg/mL
same,MIC,"MRSA; Staphylococcus aureus, 18 h, MRSA Isolate 9, upper value of MIC reading, read-out: MIC",32 µg/mL
same,MIC,"MRSA; Staphylococcus aureus, 18 h, MRSA Isolate 10, upper value of MIC reading, read-out: MIC",32 µg/mL
same,MIC,"MRSA; Staphylococcus aureus, MRSA, 18 h, panel of ten MRSA strains (clinical isolates), read-out: MRSA MIC range",16 to 64 µg/mL
same,MIC,"S. aureus; Staphylococcus aureus, 18 h, S. aureus Cowan 1, read-out: MIC",32 µg/mL
same,MIC,"S. aureus; Staphylococcus aureus, NCTC6571, 18 h, S. aureus NCTC 6571, read-out: MIC",32 µg/mL
same,MIC,"S. aureus; Staphylococcus aureus, NCTC10788, 18 h, S. aureus NCTC 10788, read-out: MIC",64 µg/mL
same,MIC,S. aboni,32 µg/mL
same,MIC,"E. faecalis; Enterococcus faecalis, 18 h, E. faecalis Isolate 1, read-out: MIC",256 µg/mL
same,MIC,"E. faecalis; Enterococcus faecalis, 18 h, E. faecalis Isolate 2, read-out: MIC",256 µg/mL
same,MIC,"E. faecalis; Enterococcus faecalis, 18 h, E. faecalis Isolate 4, read-out: MIC",256 µg/mL
same,MIC,"E. faecalis; Enterococcus faecalis, 18 h, E. faecalis Isolate 5, read-out: MIC",256 µg/mL
same,MIC,"S. haemolyticus; Staphylococcus haemolyticus, 18 h, read-out: MIC",256 µg/mL
NC(=NN=Cc1ccc(O)c(O)c1O)c1ccccn1 [Compound 2PYcb],MIC,S. epidemisis; S. epidemisis Isolate 1,256 µg/mL
same,MIC,E. faecium,256 µg/mL
same,MIC,MRSA; [4],256
same,MIC,S. aureus; S. aureus Cowan 1,256 µg/mL
same,MIC,B. bronchiseptica,256 µg/mL
NC(=NN=Cc1cc(O)c(O)cc1O)c1ccc2ccccc2n1 [QNcc],MIC,MRSA; [1],256
same,MIC,S. aureus; S. aureus Cowan 1,256 µg/mL
same,MIC,S. aureus; S. aureus NCTC 6571,256 µg/mL
same,MIC,S. aureus; S. aureus NCTC 10788,256 µg/mL
same,MIC,E. faecalis; E. faecalis Isolate 2,256 µg/mL
same,MIC,E. faecalis; E. faecalis Isolate 3,256 µg/mL
same,MIC,B. bronchiseptica,256 µg/mL
